Data on 6 compounds can be found in patent publication US11584744B2 (UNIVERSITY OF WASHINGTON, priority 2017, dated 2023).

The target in experiment [1] is recombinant S. aureus MetRS enzyme (Staphylococcus aureus, UniProt A0A0H2XID2). Description: Inhibition of SaMetRS, ATP depletion assay. Conditions: read-out: (B) MetRS (S. aureus) IC50. In kind it is biochemical. The procedure: Production of recombinant S. aureus MetRSs. The SaMetRS gene (UniProtKB—A0A0H2XID2) was PCR amplified (Sense 5′-[…]-3′ (SEQ ID NO: 1) and Antisense 5′-[…]-3′ (SEQ ID NO:2)) from genomic DNA isolated from S. aureus (ATCC 29213) cultures. The PCR product was then cloned into the AVA0421 plasmid and sequence verified. The expression of recombinant protein was performed as previously described. The N-terminal 6-His fusion proteins were purified by nickel affinity chromatography followed by size exclusion gel chromatography (Superdex 75 26/60; GE Biosciences, Piscataway, N.J.).
Sequence of recombinant S. aureus MetRS enzyme (A0A0H2XID2 2-657): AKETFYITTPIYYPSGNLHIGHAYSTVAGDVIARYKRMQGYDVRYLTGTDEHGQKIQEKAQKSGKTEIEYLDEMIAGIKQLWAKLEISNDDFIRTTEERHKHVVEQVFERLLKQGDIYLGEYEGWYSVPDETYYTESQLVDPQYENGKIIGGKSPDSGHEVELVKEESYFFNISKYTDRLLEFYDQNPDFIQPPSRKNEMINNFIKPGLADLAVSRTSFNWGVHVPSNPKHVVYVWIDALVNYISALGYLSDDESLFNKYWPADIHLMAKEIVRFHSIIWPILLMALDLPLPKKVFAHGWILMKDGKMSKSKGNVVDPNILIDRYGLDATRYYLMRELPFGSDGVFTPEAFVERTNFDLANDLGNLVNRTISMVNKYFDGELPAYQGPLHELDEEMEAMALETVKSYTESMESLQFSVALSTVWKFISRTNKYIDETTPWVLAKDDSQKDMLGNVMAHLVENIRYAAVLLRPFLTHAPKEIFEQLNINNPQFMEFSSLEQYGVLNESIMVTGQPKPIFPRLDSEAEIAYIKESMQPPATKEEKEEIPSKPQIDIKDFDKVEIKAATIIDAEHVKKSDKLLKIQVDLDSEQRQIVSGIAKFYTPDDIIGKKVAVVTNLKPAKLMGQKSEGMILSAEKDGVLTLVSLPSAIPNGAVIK
Enzyme assays. Inhibition of SaMetRS was measured using the ATP depletion assay as previously described with some modifications. Compounds were pre-incubated for 15 minutes at room temperature in a 96-well plate with 400 μg/mL bulk E. coli tRNA, 25 nM SaMetRS, 0.1 U/mL pyrophosphatase, 0.2 mM spermine, 0.1 mg/mL bovine serum albumin, 2.5 mM dithiothreitol, 25 mM HEPES-KOH pH 7.9, 10 mM MgCl2, 50 mM KCl, and 2% DMSO. Reagents were purchased from Sigma-Aldrich or Roche. The reaction was started with the addition of 150 nM ATP and 20 μM L-methionine and after 120 minute incubation was stopped by the addition of an equal volume (50 μL) of Kinase-Glo® (Promega). Percent inhibition=100×(test compound−AVG low control)/(AVG high control−AVG low control) where the low control is all reagents except the compound and the high control is all reagents except the compounds and L-methionine. IC50 values were calculated by non-linear regression, sigmoidal-dose response, in Prism 3.0.

Experiment [2] has as its system S. aureus MRSA (ATCC 33591). The experiment can be described thus: MIC susceptibility testing. In kind it is cell-based, Staphylococcus aureus. Conditions: MRSA ATCC33591; for MIC: Staphylococcus aureus, read-out: (G) MRSA (ATCC33591) MIC. A digest of the protocol: (§1)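 CLSI broth microdilution with two-fold compound dilutions, in triplicate; cells added in medium at 1×10^6 CFUs/mL, DMSO ≤0.5%. Media: MHB for S. aureus, CA-MHB for E. coli and E. faecium, CA-MHB plus 3% laked horse blood for S. pyogenes (5% CO2).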

Experiment [3] has as its system S. aureus MSSA (ATCC 29213). The experiment can be described thus: MIC susceptibility testing. In kind it is cell-based, Staphylococcus aureus. The following applies: Staphylococcus aureus, S. aureus ATCC 29213; read-out: (F) S. aureus (ATCC 29213) MIC.
The subject of experiment [4] is E. faecium VRE (ATCC 51559). The experiment can be described thus: MIC susceptibility testing. In kind it is cell-based, Enterococcus faecium. The following applies: Enterococcus faecium, E. faecium ATCC 51559; read-out: (I) E. faecium (ATCC 51559) MIC. A digest of the protocol: as §1
The target of the next experiment is T1, MetRS (T. brucei) (Trypanosoma brucei brucei, UniProt Q38C91).
T1 sequence (Q38C91 1-773): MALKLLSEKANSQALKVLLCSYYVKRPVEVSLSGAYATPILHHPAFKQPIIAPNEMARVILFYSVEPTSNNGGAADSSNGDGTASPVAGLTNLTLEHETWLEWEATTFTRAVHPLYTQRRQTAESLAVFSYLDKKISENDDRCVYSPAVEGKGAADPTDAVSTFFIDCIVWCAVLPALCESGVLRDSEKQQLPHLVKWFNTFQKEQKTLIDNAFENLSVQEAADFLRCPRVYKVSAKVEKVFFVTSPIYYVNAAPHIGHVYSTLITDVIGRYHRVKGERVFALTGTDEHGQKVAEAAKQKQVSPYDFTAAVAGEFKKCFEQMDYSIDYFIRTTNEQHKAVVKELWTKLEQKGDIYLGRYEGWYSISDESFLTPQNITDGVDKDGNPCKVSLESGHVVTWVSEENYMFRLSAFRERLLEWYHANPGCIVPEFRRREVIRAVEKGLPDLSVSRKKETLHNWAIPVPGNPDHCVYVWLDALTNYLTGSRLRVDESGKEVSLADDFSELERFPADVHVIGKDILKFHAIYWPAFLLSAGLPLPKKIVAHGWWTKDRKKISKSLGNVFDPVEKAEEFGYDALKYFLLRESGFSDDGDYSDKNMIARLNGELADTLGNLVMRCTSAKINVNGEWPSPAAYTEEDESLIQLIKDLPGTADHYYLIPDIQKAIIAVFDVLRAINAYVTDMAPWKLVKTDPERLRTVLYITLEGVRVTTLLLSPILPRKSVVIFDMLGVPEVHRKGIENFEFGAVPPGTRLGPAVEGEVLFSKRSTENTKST
Description: MetRS (T. brucei) enzyme inhibition. It counts as biochemical.

The next experiment deals with MetRS (C. parvum) (Cryptosporidium parvum, UniProt Q5CVN0). Description: MetRS (C. parvum) enzyme inhibition. It counts as biochemical. Conditions: read-out: (C) MetRS (C. parvum) IC50.
Sequence of MetRS (C. parvum) (Q5CVN0 entry or part of it): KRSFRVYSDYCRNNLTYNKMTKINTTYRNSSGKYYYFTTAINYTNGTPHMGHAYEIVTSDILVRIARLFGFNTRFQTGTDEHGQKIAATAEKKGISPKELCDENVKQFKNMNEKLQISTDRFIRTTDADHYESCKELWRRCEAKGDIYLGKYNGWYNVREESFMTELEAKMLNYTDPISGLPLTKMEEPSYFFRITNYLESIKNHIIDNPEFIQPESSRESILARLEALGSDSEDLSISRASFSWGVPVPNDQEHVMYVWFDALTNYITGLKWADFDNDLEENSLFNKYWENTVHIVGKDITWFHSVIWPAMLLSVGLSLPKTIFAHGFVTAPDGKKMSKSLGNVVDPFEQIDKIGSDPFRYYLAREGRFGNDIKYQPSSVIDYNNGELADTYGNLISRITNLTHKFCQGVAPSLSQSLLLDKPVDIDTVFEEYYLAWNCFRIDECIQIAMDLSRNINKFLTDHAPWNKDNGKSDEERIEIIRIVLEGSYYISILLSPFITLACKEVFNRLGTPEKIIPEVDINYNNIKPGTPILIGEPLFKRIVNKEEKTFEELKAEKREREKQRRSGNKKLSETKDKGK
The subject of another experiment is T. cruzi. The experiment can be described thus: T. cruzi growth inhibition. Conditions: read-out: (E) T. cruzi EC50. In kind it is cell-based, Trypanosoma cruzi.
The next experiment relates to T. brucei. The experiment can be described thus: T. brucei growth inhibition. In kind it is cell-based, Trypanosoma brucei. The following applies: read-out: (D) T. brucei EC50.
The subject of the next experiment is C. parvum. Description: C. parvum growth inhibition. In kind it is cell-based, Cryptosporidium parvum. Conditions: Cryptosporidium parvum; read-out: (J) C. parvum EC50.

Values after ≈ are worked out from the molar mass of the structure shown. Values joined by “and” are separate entries in the source; they are usually repeats but may differ in a detail not shown here. Equal values may be shown once. Read-outs that look alike come from different tables or passages of the source.

On to `COCCCn1c(Cc2ccc(Cl)cc2Cl)cn(Cc2nc3ccc(F)nc3[nH]2)c1=O` [Compound 2082, 4-[(2,4-dichlorophenyl)methyl]-1-({5-fluoro-1H-imidazo[4,5-b]pyridin-2-yl}methyl)-3-(3-methoxypropyl)-2,3-dihydro-1H-imidazol-2-one], for which the results for the IC50 (in [1]; against MetRS (T. brucei); on MetRS (C. parvum)) were under 25 nM, under 40 nM and under 40 nM, respectively. Also, the minimal inhibitory concentration (MIC) (as a rule, the least concentration at which growth counts as inhibited) in experiment [2] was 1.54 µg/mL (≈ 3.32 µM); in experiment [3], 0.18 µg/mL (≈ 0.388 µM); in experiment [4], 0.238 µg/mL (≈ 0.513 µM). For the same compound, the EC50 (in general, the concentration needed to bring the measured effect to its halfway point) in the experiment on T. cruzi (Trypanosoma cruzi) amounted to 145 nM.
As for `Clc1ccc(-c2cccc3nc(Cc4nc5nc(Cl)ccc5[nH]4)cn23)c(Cl)c1` [Compound 2134, 2-({5-chloro-1H-imidazo[4,5-b]pyridin-2-yl}methyl)-5-(2,4-dichlorophenyl)-imidazo[1,2-a]pyridine], the concentration for half-maximal inhibition (IC50) (usually the point on the concentration scale where inhibition reaches its midpoint) is under 25 nM in experiment [1], under 40 nM against MetRS (T. brucei) and 58.8 nM at MetRS (C. parvum). Besides, in experiment [2], the “(G) MRSA (ATCC33591) MIC” value is 0.331 µg/mL. The minimal inhibitory concentration (MIC) amounted to 0.268 µg/mL (≈ 0.625 µM) in experiment [2], 0.162 µg/mL (≈ 0.378 µM) in experiment [3] and 0.259 µg/mL (≈ 0.604 µM) in experiment [4]. Also, the EC50 in the experiment on T. brucei (Trypanosoma brucei) turned out to be 64 nM; with T. cruzi (Trypanosoma cruzi), 685 nM.
For `O=c1n(Cc2nc3ccc(Cl)nc3[nH]2)cc(Cc2ccc(Cl)cc2Cl)n1CC(F)F` [Compound 2138, 1-({5-chloro-1H-imidazo[4,5-b]pyridin-2-yl}methyl)-4-[(2,4-dichlorophenyl)-methyl]-3-(2,2-difluoroethyl)-2,3-dihydro-1H-imidazol-2-one], the values for the 50% inhibitory concentration (IC50) (in [1]; against MetRS (T. brucei); on MetRS (C. parvum)) were under 25 nM, under 40 nM and under 40 nM, respectively. The MIC in [2] was 0.553 µg/mL (≈ 1.17 µM); in experiment [3], 0.062 µg/mL (≈ 0.131 µM); in experiment [4] it was 0.596 µg/mL (≈ 1.26 µM). The concentration giving a half-maximal response (EC50) with T. brucei (Trypanosoma brucei) was determined as 2.46 nM; in the experiment with T. brucei, 3.48 nM; in the experiment with T. cruzi (Trypanosoma cruzi), 26.7 nM; in the experiment with T. cruzi, 53.1 nM.
`COc1cc(-c2cccc3nc(Cc4nc5nc(Br)ccc5[nH]4)cn23)c(Cl)cc1Cl` [Compound 2146, 2-({5-bromo-1H-imidazo[4,5-b]pyridin-2-yl}methyl)-5-(2,4-dichloro-5-methoxyphenyl)imidazo[1,2-a]pyridine]: the IC50 was under 25 nM in experiment [1], under 40 nM at MetRS (T. brucei) and 92.4 nM at MetRS (C. parvum). The “(G) MRSA (ATCC33591) MIC” value in experiment [2] is 0.165, μg/mL and 0.179 μg/mL. Also, the minimum inhibitory concentration (MIC) in [2] came to 0.127 µg/mL (≈ 0.252 µM); in experiment [4], 0.141 µg/mL (≈ 0.28 µM). The 50% effective concentration (EC50) is 19.5 nM in the experiment with T. cruzi (Trypanosoma cruzi), 29.7 nM in the experiment with T. cruzi and 1990 nM with C. parvum.
For `COc1ccc(-c2ccc(NS(C)(=O)=O)c3nc(Cc4nc5nc(Cl)ccc5[nH]4)cn23)c(Cl)c1` [Compound 2174, N-[2-({5-chloro-1H-imidazo[4,5-b]pyridin-2-yl}methyl)-5-(2-chloro-4-methoxyphenyl)imidazo[1,2-a]pyridin-8-yl]methanesulfonamide], the half-inhibitory concentration (IC50) in experiment [1] is under 25 nM; at MetRS (T. brucei), under 40 nM; at MetRS (C. parvum) it was under 40 nM. The MIC in experiment [2] turned out to be 0.319 µg/mL (≈ 0.617 µM); in [3], 0.158 µg/mL (≈ 0.305 µM); in [4] it was 0.318 µg/mL (≈ 0.615 µM). The half-maximal effective concentration (EC50) in the experiment with T. cruzi (Trypanosoma cruzi) was found to be 195 nM; in the experiment on C. parvum it was 1190 nM.
`COc1ccc(-c2ccc(NC(C)=O)c3nc(Cc4nc5nc(Br)ccc5[nH]4)cn23)c(Cl)c1` [Compound 2184, N-[2-({5-bromo-1H-imidazo[4,5-b]pyridin-2-yl}methyl)-5-(2-chloro-4-methoxyphenyl)imidazo[1,2-a]pyridin-8-yl]acetamide]: the IC50 is under 25 nM in experiment [1], under 40 nM on MetRS (T. brucei) and under 40 nM on MetRS (C. parvum). The values for the MIC in [2], in experiment [3] and in [4] were 0.435 µg/mL (≈ 0.827 µM), 0.201 µg/mL (≈ 0.382 µM) and 0.286 µg/mL (≈ 0.544 µM), respectively. Further, the EC50 came to 29.3 nM in the experiment with T. cruzi (Trypanosoma cruzi), 23.1 nM with T. cruzi and 719 nM in the experiment with C. parvum.
